Consider eight compounds from patent US20060142572A1, “Inhibitors of ERK protein kinase and uses thereof” (priority 2004, published 2006).

Where only a bound is given, the exact number is not on record here.

This assay deals with activated ERK2 (Homo sapiens, UniProt P28482). Briefly: ERK2 inhibition assay (spectrophotometric coupled-enzyme assay). In kind it is biochemical. The note with it: activated ERK2 10 nM, 65 μM ATP, 200 μM erktide peptide, 30° C., pH 7.5. Here is the method: Compounds were assayed for the inhibition of ERK2 by a spectrophotometric coupled-enzyme assay (Fox et al., Protein Sci. 7:2249, 1998). In this assay, a fixed concentration of activated ERK2 (10 nM) was incubated with various concentrations of a compound of the present invention in DMSO (2.5%) for 10 min. at 30° C. in 0.1 M HEPES buffer (pH 7.5), containing 10 mM MgCl2, 2.5 mM phosphoenolpyruvate, 200 μM NADH, 150 μg/ml pyruvate kinase, 50 μg/ml lactate dehydrogenase, and 200 μM erktide peptide. The reaction was initiated by the addition of 65 μM ATP. The rate of decrease of absorbance at 340 nm was monitored.
activated ERK2, sequence (P28482 whole entry): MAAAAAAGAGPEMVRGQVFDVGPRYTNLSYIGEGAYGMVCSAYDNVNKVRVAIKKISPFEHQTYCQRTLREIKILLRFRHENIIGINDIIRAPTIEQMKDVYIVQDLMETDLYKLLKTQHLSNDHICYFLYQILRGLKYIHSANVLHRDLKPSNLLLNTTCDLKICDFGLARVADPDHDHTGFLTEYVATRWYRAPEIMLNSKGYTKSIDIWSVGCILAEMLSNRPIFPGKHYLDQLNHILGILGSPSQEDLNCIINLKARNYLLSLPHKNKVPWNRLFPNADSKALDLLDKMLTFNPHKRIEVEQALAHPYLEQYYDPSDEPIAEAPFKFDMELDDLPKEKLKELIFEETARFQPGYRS

In the case of `CC(C)Nc1ncc(Cl)c(NCCC(=O)N[C@H](CO)c2cccc(Cl)c2)n1` [Compound I-3], the Ki (usually the equilibrium dissociation constant of an inhibitor or competing ligand from its target) was more than 700 nM. The same measure for `C[C@@H](CO)Nc1ncc(Cl)c(NC2(C(=O)N[C@H](CO)c3cccc(Cl)c3)CC2)n1` [Compound I-5, 1-(5-chloro-2-(2-hydroxy-1-methylethylamino)-pyrimidin-4-ylamino)-cyclopropanecarboxylic acid [1-(3-chlorophenyl)-2-hydroxyethyl]-amide]: more than 700 nM; for `C[C@@H](CO)Nc1nccc(N(C)CC(=O)N[C@H](CO)c2cccc(Cl)c2)n1` [Compound I-8]: more than 700 nM; for `CC(C)Nc1ncc(Cl)c(NCC(=O)N[C@H](CO)c2cccc(Cl)c2)n1` [Compound I-1]: more than 700 nM. Consider `C[C@@H](CO)Nc1ncc(Cl)c(N(C)CC(=O)N[C@H](CO)c2cccc(Cl)c2)n1` [Compound I-7, 2-{[5-chloro-2-(2-hydroxy-1-methylethylamino)pyrimidin-4-yl]-methylamino}-N-[1-(3-chlorophenyl)-2-hydroxyethyl]acetamide], for which the Ki was more than 700 nM. For the compound `C[C@@H](CO)Nc1ncc(Cl)c(NCC(=O)N[C@H](CO)c2cccc(Cl)c2)n1` [Compound I-2, 2-[5-chloro-2-(2-hydroxy-1-methylethylamino)-pyrimidin-4-ylamino]-N-[1-(3-chlorophenyl)-2-hydroxyethyl]acetamide], the Ki is not above 700 nM. Turning to `CC[C@@H](CO)Nc1ncc(Cl)c(NC2(C(=O)N[C@H](CO)c3cccc(Cl)c3)CC2)n1` [Compound I-6], the Ki is more than 700 nM. Consider `C[C@@H](CO)Nc1ncc(Cl)c(NCCC(=O)N[C@H](CO)c2cccc(Cl)c2)n1` [Compound I-4], for which the Ki is more than 700 nM.
